Experiment [1] deals with Candida albicans IFO 1270. In words: growth inhibition of Candida albicans IFO 1270 in culture (Test Example 1, Table 2). In kind it is cell-based. The conditions noted are these: 37° C., Sabouraud's glucose broth; for Growth inhibition ratio (%) 0.1 μg/ml / inhibition of growth at 0.1 µg/mL: final compound concentration 0.1 μg/ml; for Growth inhibition ratio (%) 0.1 μg/ml / Growth inhibition ratio (%) 10 μg/ml: 48 hrs; for Growth inhibition ratio (%) 10 μg/ml / inhibition of growth at 10 µg/mL: final compound concentration 10 μg/ml; for inhibition of growth at 0.1 µg/mL / inhibition of growth at 10 µg/mL: Candida albicans, IFO1270, 48 h; for inhibition of growth at 0.1 µg/mL: read-out: Growth inhibition ratio (%) 0.1 μg/ml; for inhibition of growth at 10 µg/mL: read-out: Growth inhibition ratio (%) 10 μg/ml. As for the experimental part:
A 0.1 ml portion of a cell suspension of Candida albicans IFO 1270 (1.0×10^7 cells/ml) and a 0.1 ml portion of each test compound dissolved in dimethylsulfoxide were added to 9.8 ml of Sabouraudp's glucose broth.
Final compound concentrations in the culture were 10 μg/ml or 0.1 μg/ml. After incubation On a reciprocal shaker at 37° C. for 48 hrs, growth inhibition ratio of each test compound was measured.

In the next experiment the test system is C. albicans IFO 1270. In words: survival of mice after intravenous inoculation with C. albicans, oral treatment (Test Example 2, Table 3). In kind it is in vivo. To be noted: 10 mg/kg orally once a day for 3 consecutive days, 10 days after inoculation, male ddy mice; for responders at 10 mg/kg: Candida albicans, IFO1270, po, 240 h, read-out: Survival ratio (%). As for the experimental part:
Male ddy mice at six weeks of age were divided into a control group of 10 animals and drug administration groups of 5 animals each.
Subculture was carried out at 37° C. for 24 hrs Sabouraudp's glucose agar (manufactured by Difco laboratory).
A cell suspension of C. albicans IFO 1270 (2.5×10^7 cells/ml) was intravenously inoculated in an amount of 4 ml/kg, and each test compound was orally administered in a dose of 10 mg/kg once a day for 3 consecutive days. Examination of survival ratio was carried out 10 days after the inoculation of fungi.

Consider `CC(CCCc1ccc(Cl)cc1)C(O)(Cn1cncn1)c1ccc(F)cc1F` (centres unmarked) [compound 3], for which, in experiment [1], the “Growth inhibition ratio (%) 0.1 μg/ml” value was determined as 58% and the “Growth inhibition ratio (%) 10 μg/ml” value was found to be 74%. Also, the “Survival ratio (%)” value in the experiment with C. albicans IFO 1270 amounted to 60%.
On the same counts, the results for “2-(2,4-difluorophenyl)-2-[1-methyl-2-(4-fluorophenyl)-ethyl]-1-triazolyl-2-ethanol [compound 11]” are 45%, 74% and 60%.
`CC(Cc1ccc(-n2cncn2)cc1)C(O)(Cn1cncn1)c1ccc(F)cc1F` (centres unmarked) [compound 16]: the “Survival ratio (%)” value in the experiment with C. albicans IFO 1270 stood at 100%.
`CC(Cc1ccc(F)cc1F)C(O)(Cn1cncn1)c1ccc(F)cc1F` (centres unmarked) [compound 32]: the responders at 10 mg/kg in the experiment on C. albicans IFO 1270 amounted to 80%.
Turning to `CC(Cc1ccc(-n2cncn2)cc1)C(O)(Cn1cncn1)c1ccc(F)cc1F` (centres unmarked) [compound 17], the “Survival ratio (%)” value in the experiment on C. albicans IFO 1270 is on record as 60%.
As to `CC(Cc1ccc([N+](=O)[O-])cc1)C(O)(Cn1cncn1)c1ccc(F)cc1F` (centres unmarked) [compound 22], in experiment [1], the inhibition of growth at 0.1 µg/mL came to 58% and the inhibition of growth at 10 µg/mL stood at 70%. For the same compound, the responders at 10 mg/kg in the experiment on C. albicans IFO 1270 was determined as 100%.
Take `CC(Cc1ccc(Cl)cc1SC(F)F)C(O)(Cn1cncn1)c1ccc(F)cc1F` (centres unmarked) [compound 20]: in experiment [1], the inhibition of growth at 0.1 µg/mL is 53% and the inhibition of growth at 10 µg/mL was 68%. Besides, the responders at 10 mg/kg in the experiment with C. albicans IFO 1270 was 100%.
As to `CC(Cc1ccc(C(F)(F)F)cc1)C(O)(Cn1cncn1)c1ccc(F)cc1F` (centres unmarked) [compound 43], the responders at 10 mg/kg in the experiment on C. albicans IFO 1270 stood at 100%.
For `CC(CSc1nccn1C)C(O)(Cn1cncn1)c1ccc(F)cc1` (centres unmarked) [compound 5], in experiment [1], the inhibition of growth at 0.1 µg/mL was 5% and the inhibition of growth at 10 µg/mL is 10%. The responders at 10 mg/kg with C. albicans IFO 1270 is 0%.
As for `CC(Cc1ccc(C#N)cc1)C(O)(Cn1cncn1)c1ccc(F)cc1F` (single isomer, unassigned) [compound 8, 1-triazolyl-2-(2,4-difluorophenyl)-3-methyl-4-(4-cyanophenyl)-2-butanol], in experiment [1], the inhibition of growth at 0.1 µg/mL amounted to 59% and the inhibition of growth at 10 µg/mL amounted to 78%. For the same compound, the responders at 10 mg/kg in the experiment on C. albicans IFO 1270 was 100%.
Regarding `CC(CCc1ccc(-n2cncn2)cc1)C(O)(Cn1cncn1)c1ccc(F)cc1F` (centres unmarked) [compound 37, 2-(2,4-difluorophenyl)-3-methyl-5-(4-triazolphenyl)-1-triazolyl-pentan-2-ol], the responders at 10 mg/kg in the experiment with C. albicans IFO 1270 came to 80%.
`CC(Cc1ccc(S(C)(=O)=O)cc1)C(O)(Cn1cncn1)c1ccc(F)cc1F` (centres unmarked) [compound 30]: in experiment [1], the inhibition of growth at 0.1 µg/mL was 6% and the inhibition of growth at 10 µg/mL is 63%. Also, the responders at 10 mg/kg in the experiment on C. albicans IFO 1270 came out at 100%.
For `CC(CCCc1ccc(Cl)cc1)C(O)(Cn1cncn1)c1ccc(F)cc1F` (centres unmarked) [compound 2] the same measures were 60%, 76% and 80%.
As for `CC(=O)N1CCN(c2ccc(OC[C@H]3CO[C@](Cn4ccnc4)(c4ccc(Cl)cc4Cl)O3)cc2)CC1` (relative stereo) [Control drug A, cis1-acetyl-4-[4-[[2-(2,4-dichlorophenyl)-2-(imidazol-1-ylmethyl)-1,3-dioolan-4-yl]methoxy]phenyl]piperazine, reference compound], in experiment [1], the inhibition of growth at 0.1 µg/mL was 59% and the inhibition of growth at 10 µg/mL came to 77%. For the same compound, the responders at 10 mg/kg in the experiment with C. albicans IFO 1270 is 20%.
Take `CC(Cn1cncn1)C(O)(Cn1cncn1)c1ccc(F)cc1` (centres unmarked) [compound 14]: in experiment [1], the inhibition of growth at 0.1 µg/mL was 2% and the inhibition of growth at 10 µg/mL came to 20%. Moreover, the responders at 10 mg/kg in the experiment with C. albicans IFO 1270 was 20%.
Take `CC(Cc1ccc(Cl)cc1Cl)C(O)(Cn1cncn1)c1ccc(F)cc1F` (centres unmarked) [compound 28]: the responders at 10 mg/kg with C. albicans IFO 1270 is 100%.
On to `CC(Cc1ccc(-n2cncn2)cc1)C(O)(Cn1cncn1)c1ccc(F)cc1F` (centres unmarked) [compound 15], for which, in experiment [1], the inhibition of growth at 0.1 µg/mL came to 53% and the inhibition of growth at 10 µg/mL is 66%. Further, the “Survival ratio (%)” value in the experiment on C. albicans IFO 1270 was found to be 100%.
For `CC(Cc1ccc(C#N)cc1)C(O)(Cn1cncn1)c1ccc(F)cc1F` (centres unmarked) [compound 7, 1-triazolyl-2-(2,4-difluorophenyl)-3-methyl-4-(4-cyanophenyl)-2-butanol], in experiment [1], the inhibition of growth at 0.1 µg/mL came out at 53% and the inhibition of growth at 10 µg/mL came to 74%. For the same compound, in the experiment with C. albicans IFO 1270, the responders at 10 mg/kg was 100%.
On the same counts, the results for `CC(Cc1ccc(F)cc1)C(O)(Cn1cncn1)c1ccc(F)cc1F` (centres unmarked) [Compound No. 1] are 71%, 85% and 80%.
Regarding `CC(Cc1cccnc1)C(O)(Cn1cncn1)c1ccc(F)cc1F` (centres unmarked) [compound 18], the responders at 10 mg/kg in the experiment with C. albicans IFO 1270 is 40%.
On to `CSc1cc(Cl)ccc1CC(C)C(O)(Cn1cncn1)c1ccc(F)cc1F` (centres unmarked) [compound 39], for which, in experiment [1], the inhibition of growth at 0.1 µg/mL turned out to be 53% and the inhibition of growth at 10 µg/mL was 68%. For the same compound, the responders at 10 mg/kg in the experiment on C. albicans IFO 1270 came out at 100%.
As to `CC(CCc1ccc(C#N)cc1)C(O)(Cn1cncn1)c1ccc(F)cc1F` (centres unmarked) [compound 35], in experiment [1], the inhibition of growth at 0.1 µg/mL was found to be 60% and the inhibition of growth at 10 µg/mL was 74%.
On the same counts, the results for `CC(CCc1ccc(F)cc1)C(O)(Cn1cncn1)c1ccc(F)cc1F` (centres unmarked) [compound 25] are 60% and 70%.
`CC(CSc1ccc(F)cc1)C(O)(Cn1cncn1)c1ccc(F)cc1` (centres unmarked) [compound 4, 1-triazolyl-2-(4-fluorophenyl)-3-methyl-4-(4-fluorophenyl)-mercapto-2-butanol]: in experiment [1], the inhibition of growth at 0.1 µg/mL came out at 6% and the inhibition of growth at 10 µg/mL was 72%. Moreover, the responders at 10 mg/kg with C. albicans IFO 1270 was found to be 0%.
As to `CC(Cc1ccc(-n2cnn(C)c2=O)cc1)C(O)(Cn1cncn1)c1ccc(F)cc1F` (centres unmarked) [compound 31], the responders at 10 mg/kg in the experiment on C. albicans IFO 1270 worked out at 80%.
The same measure, in the same setting: the figure for `CC(Cc1ccc(C=NNC=O)cc1)C(O)(Cn1cncn1)c1ccc(F)cc1F` (centres unmarked) [compound 27] is 40%; for `CC(Cc1ccc(OC(F)(F)F)cc1)C(O)(Cn1cncn1)c1ccc(F)cc1F` (centres unmarked) [Compound No. 10] it is 100%.

For the origin of these results see patent US5629332A, “Triazole compound and use thereof” (Nihon Nohyaku Co., Ltd., priority 1994, dated 1997).
